The values that follow come from US20250375539A1, “COMPOSITIONS OF DISPERSED SYSTEMS FOR BIOMEDICAL APPLICATIONS, PROCESS FOR THEIR PREPARATION AND USES THEREOF” (SUPERBRANCHE, priority 2022, published 2025).

A short description of the series: Isothermal compression of Langmuir monolayers of dendrons at the air/water interface. The class given is physicochemical. Conditions: 25±0.5° C. Here is the method:
The evaluation of anchoring capability of the dendrons at interfacial film of microbubbles was evaluated by investigating the isothermal compression of Langmuir monolayers formed by these molecules at the air/water interface. Langmuir monolayers constitute a bidimensional experimental model of the interfacial film of the nanoemulsions. In the above-mentioned experiments, the surface pressure (π) versus molecular area (A) isotherms were recorded using a Langmuir minitrough (KSV NIMA, Finland) equipped with two movable barriers (initial area: 365×75 mm^2, compression speed: 10 cm^2 min^−1, which corresponded to a reduction of the total area of ˜3.6% min^−1). π was measured using the Wilhelmy plate (paper) method. The trough was maintained at 25±0.5° C. Solutions of oligo(ethylene oxide) dendrons (1 mmol L^−1) in chloroform were spread on the surface of water (320 mL). Subsequently, 15 min was allowed for chloroform to evaporate and the film to equilibrate before compression was initiated. All the experiments were performed at least three times. Since our Langmuir trough only allowed for a surface area compression of about 10, isotherms were recorded in three separate experiments.

`CCOP(=O)(Cc1cc(CP(=O)(OCC)OCC)cc(OCCNC(=O)c2cc(OCCOCCOCCOCCOC)c(OCCOCCOCCOCCOC)c(OCCOCCOCCOCCOC)c2)c1)OCC` [DM]: the “collapse pressure / surface pressure of the Langmuir monolayer” value is about 10 mN m^−1.
